In patent US20200061047A1, “NEW USE OF RIFAMYCIN-QUINOLIZIDONE DUAL-ACTION MOLECULE” (TenNor Therapeutics Limited, priority 2017, published 2020):
Values after ≈ are worked out from the molar mass of the structure shown. Where two headings read alike, the source gives them in different places.

Experiments:
Type in all cases: cell-based
[1] = tested on: Actinomyces naeslundii JMI 534283; assay: MIC, agar dilution drug sensitivity test; conditions: JMI534283, Aerobic
[2] = tested on: Helicobacter pylori ATCC 700824; assay: MIC, agar dilution drug sensitivity test; conditions: ATCC700824, Table 1
[3] = tested on: Bordetella avium ATCC 6945; assay: MIC, agar dilution drug sensitivity test; conditions: Bordetella avium, ATCC6945, Bordetella avium ATCC 6945, read-out: MIC
[4] = tested on: Proteus vulgaris MMX 6454; assay: MIC, agar dilution drug sensitivity test; conditions: MMX6454, Table 1
[5] = tested on: Bacteroides bifidum ATCC 1569; assay: MIC, agar dilution drug sensitivity test; conditions: ATCC1569, Table 1
[6] = tested on: Fusobacterium necrophorum ATCC 25286; assay: MIC, agar dilution drug sensitivity test; conditions: ATCC25286, Table 1
[7] = tested on: Bacteroides vulgatus JMI 927011; assay: MIC, agar dilution drug sensitivity test; conditions: Phocaeicola vulgatus, JMI927011
[8] = tested on: Proteus mirabilis JMI 933599; assay: MIC, agar dilution drug sensitivity test; conditions: JMI933599, Table 1
[9] = tested on: Escherichia coli ATCC 25922; assay: MIC, agar dilution drug sensitivity test; conditions: ATCC25922, Table 1
[10] = tested on: Alcaligenes faecalis JMI 940880; assay: MIC, agar dilution drug sensitivity test; conditions: JMI940880, Aerobic
[11] = tested on: Streptococcus pneumoniae ATCC 49619; assay: MIC, agar dilution drug sensitivity test; conditions: read-out: MIC
[12] = tested on: Yersinia enterocolitica ATCC 23715; assay: MIC, agar dilution drug sensitivity test; conditions: ATCC23715, Table 1
[13] = tested on: Streptococcus salivarius ATCC 25975; assay: MIC, agar dilution drug sensitivity test; conditions: Streptococcus salivarius, ATCC25975, Streptococcus salivarius ATCC 25975, read-out: MIC
[14] = tested on: Corynebacterium urealyticum JMI 2015_30; assay: MIC, agar dilution drug sensitivity test; conditions: Aerobic
[15] = tested on: Clostridium perfringens ATCC 13124; assay: microbe, parasite or virus in culture; conditions: ATCC13124
[16] = tested on: Clostridium difficile ATCC 700057; assay: MIC, agar dilution drug sensitivity test; conditions: Clostridioides difficile, ATCC700057
[17] = ATCC49619, Streptococcus pneumoniae ATCC 49619, Aerobic
[18] = ATCC49619, Streptococcus pneumoniae ATCC 49619, Anaerobic

SMILES	MIC [1] [µg/mL]	MIC [2] [µg/mL]	MIC ([3]; Aerobic) [µg/mL]	MIC ([3]; Anaerobic) [µg/mL]	MIC [4] [µg/mL]	MIC [5] [µg/mL]	MIC [6] [µg/mL]	MIC [7] [µg/mL]	MIC [8] [µg/mL]	MIC [9] [µg/mL]	MIC [10] [µg/mL]	MIC [11, 17] [µg/mL]	MIC [11, 18] [µg/mL]	MIC [12] [µg/mL]	MIC ([13]; Aerobic) [µg/mL]	MIC ([13]; Anaerobic) [µg/mL]	MIC [14] [µg/mL]	MIC [15] [µg/mL]	MIC [16] [µg/mL]
O=C(O)c1cn(C2CC2)c2cc(N3CCNCC3)c(F)cc2c1=O [Ciprofloxacin, ciprofloxacin]	2 (≈ 6.04 µM)	0.12 (≈ 0.362 µM)	1 (≈ 3.02 µM)	2 (≈ 6.04 µM)	0.12 (≈ 0.362 µM)	2 (≈ 6.04 µM)	1 (≈ 3.02 µM)	> 16	0.0015 (≈ 0.00453 µM)	0.008 (≈ 0.0241 µM)	1 (≈ 3.02 µM)	1 (≈ 3.02 µM)	2 (≈ 6.04 µM)	0.015 (≈ 0.0453 µM)	1 (≈ 3.02 µM)	2 (≈ 6.04 µM)	> 16		
CO[C@H]1/C=C/O[C@@]2(C)Oc3c(C)c(O)c4c(O)c(c(/C=N/N5CCC(N(C)C6([C@@H]7CCN(c8c(F)cn9c(=O)c(C(=O)O)cc(C%10CC%10)c9c8C)C7)CC6)CC5)c(O)c4c3C2=O)NC(=O)/C(C)=C\C=C\[C@H](C)[C@H](O)[C@@H](C)[C@@H](O)[C@@H](C)[C@H](OC(C)=O)[C@@H]1C [Compound I, (R)-3-[(4-{1-[1-(3-carboxy-1-cyclopropyl-7-fluoro-9-methyl-4-oxo-4H-quinolizine-8-yl)-pyrrolidin-3-yl-cyclopropyl]-methylamino}-piperidin-1-ylimino)-methylene]-rifamycin SV]	0.03 (≈ 0.0249 µM)	0.12 (≈ 0.0996 µM)	4 (≈ 3.32 µM)	> 64	2 (≈ 1.66 µM)	16 (≈ 13.3 µM)	0.12 (≈ 0.0996 µM)	16 (≈ 13.3 µM)	8 (≈ 6.64 µM)	0.12 (≈ 0.0996 µM)	32 (≈ 26.5 µM)	0.06 (≈ 0.0498 µM)	0.06 (≈ 0.0498 µM)	0.12 (≈ 0.0996 µM)	0.5 (≈ 0.415 µM)	> 64	0.03 (≈ 0.0249 µM)	0.03 (≈ 0.0249 µM)	0.004 (≈ 0.00332 µM)
